Laboratory results from US6693216B2, “Calcium double salts” (Nutrinova Nutrition Specialties & Food Ingredients GmbH, priority 2000, dated 2004).
Read-outs that look alike come from different tables or passages of the source.

How the values were obtained:
[1] = tested on: Bacilli; details: Part II, 1 g/l in apple juice pH 4.5, 25° C.
[2] = tested on: Acetic acid bacteria; details: Part II, 1 g/l in apple juice pH 4.5, 25° C.
[3] = sealed
Text: Salts prepared as in example 1 were dried, stored under the specified conditions without the addition of other substances and checked at regular intervals visually for discoloration: […]

[4] = tested on: Yeasts; details: Part II, 1 g/l in apple juice pH 4.5, 25° C.
[5] = tested on: Clostridia; details: Part II, 1 g/l in apple juice pH 4.5, 25° C.
[6] = tested on: Thermophilic bacilli; details: Part II, 1 g/l in apple juice pH 4.5, 25° C.
[7] = tested on: all microorganisms used
[8] = tested on: Molds I; details: Part II, 1 g/l in apple juice pH 4.5, 25° C.
[9] = tested on: Molds II; details: Part II, 1 g/l in apple juice pH 4.5, 25° C.
[10] = tested on: Lactic acid bacteria; details: Part II, 1 g/l in apple juice pH 4.5, 25° C.
[11] = tested on: Gram-negative bacteria; details: Part II; for Number of surviving microorganisms per g of contaminated sample, Gram-negative bacteria: 1 g/l in apple juice pH 4.5, 25° C.
[12] = tested on: Gram-positive bacteria; details: Part II, 1 g/l in apple juice pH 4.5, 25° C.
[13] = 1 day after inoculation (2.7 × 10^4)
[14] = 3 days after inoculation (2.7 × 10^4)
[15] = 7 days after inoculation (2.7 × 10^4)
[16] = 14 days after inoculation (2.7 × 10^4)

C/C=C/C=C/C(=O)[O-].CC(=O)[O-].[Ca+2] [calcium acetate sorbate]
Number of surviving microorganisms per g of contaminated sample, Bacilli ([1]; 1 day after inoculation (3.3 × 10^4)): 2.5 × 10^3 CFU/g | Number of surviving microorganisms per g of contaminated sample, Bacilli ([1]; 3 days after inoculation (3.3 × 10^4)): 1.7 × 10^3 CFU/g | Number of surviving microorganisms per g of contaminated sample, Bacilli ([1]; 7 days after inoculation (3.3 × 10^4)): 1.7 × 10^3 CFU/g | Number of surviving microorganisms per g of contaminated sample, Bacilli ([1]; 14 days after inoculation (3.3 × 10^4)): 1.4 × 10^3 CFU/g | Number of surviving microorganisms per g of contaminated sample, Acetic acid bacteria ([2]; 1 day after inoculation (2.8 × 10^4)): 2.5 × 10^4 CFU/g | Number of surviving microorganisms per g of contaminated sample, Acetic acid bacteria ([2]; 3 days after inoculation (2.8 × 10^4)): 6.5 × 10^3 CFU/g | Number of surviving microorganisms per g of contaminated sample, Acetic acid bacteria ([2]; 7 days after inoculation (2.8 × 10^4)): 1.7 × 10^5 CFU/g | Number of surviving microorganisms per g of contaminated sample, Acetic acid bacteria ([2]; 14 days after inoculation (2.8 × 10^4)): 1.6 × 10^5 CFU/g | Time after yellow-brown discoloration of a 1% strength aqueous solution ([3]; dark at 7° C.): >12 months />12 months | Time after yellow-brown discoloration of the powder ([3]; dark at 7° C.): 12 months />12 months | Time after yellow-brown discoloration of a 1% strength aqueous solution ([3]; dark at 25° C.): >12 months />12 months | Time after yellow-brown discoloration of the powder ([3]; dark at 25° C.): 12 months />12 months | Time after yellow-brown discoloration of a 1% strength aqueous solution ([3]; under sunlight at 7° C.): 12 months />12 months | Time after yellow-brown discoloration of the powder ([3]; under sunlight at 7° C.): 12 months />12 months | Time after yellow-brown discoloration of a 1% strength aqueous solution ([3]; under sunlight at 25° C.): 12 months />12 months | Time after yellow-brown discoloration of the powder ([3]; under sunlight at 25° C.): 12 months />12 months | Number of surviving microorganisms per g of contaminated sample, Yeasts ([4]; 1 day after inoculation (2.6 × 10^4)): 1.3 × 10^4 CFU/g | Number of surviving microorganisms per g of contaminated sample, Yeasts ([4]; 3 days after inoculation (2.6 × 10^4)): 3.4 × 10^3 CFU/g | Number of surviving microorganisms per g of contaminated sample, Yeasts ([4]; 7 days after inoculation (2.6 × 10^4)): <100 CFU/g | Number of surviving microorganisms per g of contaminated sample, Yeasts ([4]; 14 days after inoculation (2.6 × 10^4)): <10 CFU/g | Number of surviving microorganisms per g of contaminated sample, Clostridia ([5]; 1 day after inoculation (2.9 × 10^4)): 7.0 × 10^2 CFU/g | Number of surviving microorganisms per g of contaminated sample, Clostridia ([5]; 3 days after inoculation (2.9 × 10^4)): <100 CFU/g | Number of surviving microorganisms per g of contaminated sample, Clostridia ([5]; 7 days after inoculation (2.9 × 10^4)): <10 CFU/g | Number of surviving microorganisms per g of contaminated sample, Clostridia ([5]; 14 days after inoculation (2.9 × 10^4)): <10 CFU/g | Number of surviving microorganisms per g of contaminated sample, Thermophilic bacilli ([6]; 1 day after inoculation (1.3 × 10^4)): 2.3 × 10^3 CFU/g | Number of surviving microorganisms per g of contaminated sample, Thermophilic bacilli ([6]; 3 days after inoculation (1.3 × 10^4)): 1.1 × 10^3 CFU/g | Number of surviving microorganisms per g of contaminated sample, Thermophilic bacilli ([6]; 7 days after inoculation (1.3 × 10^4)): 1.0 × 10^2 CFU/g | Number of surviving microorganisms per g of contaminated sample, Thermophilic bacilli ([6]; 14 days after inoculation (1.3 × 10^4)): <10 CFU/g | Preservative action against the microorganisms used ([7]; 1 g/l in apple juice pH 4.5, up to 14 days): acts well and persistently against all microorganisms used except for acetic acid bacteria and bacilli | Preservative action compared with the single salts ([7]; same concentration, 1 g/l in apple juice pH 4.5): acts surprisingly better than calcium acetate (in particular against lactic acid bacteria, yeasts, molds and Gram-positive bacteria) or calcium sorbate (in particular against lactic acid bacteria) used alone | Number of surviving microorganisms per g of contaminated sample, Molds I ([8]; 1 day after inoculation (2.2 × 10^4)): 3.7 × 10^3 CFU/g | Number of surviving microorganisms per g of contaminated sample, Molds I ([8]; 3 days after inoculation (2.2 × 10^4)): 5.0 × 10^2 CFU/g | Number of surviving microorganisms per g of contaminated sample, Molds I ([8]; 7 days after inoculation (2.2 × 10^4)): 1.0 × 10^2 CFU/g | Number of surviving microorganisms per g of contaminated sample, Molds I ([8]; 14 days after inoculation (2.2 × 10^4)): <100 CFU/g | Number of surviving microorganisms per g of contaminated sample, Molds II ([9]; 1 day after inoculation (2.5 × 10^4)): 4.4 × 10^3 CFU/g | Number of surviving microorganisms per g of contaminated sample, Molds II ([9]; 3 days after inoculation (2.5 × 10^4)): <100 CFU/g | Number of surviving microorganisms per g of contaminated sample, Molds II ([9]; 7 days after inoculation (2.5 × 10^4)): <10 CFU/g | Number of surviving microorganisms per g of contaminated sample, Molds II ([9]; 14 days after inoculation (2.5 × 10^4)): <10 CFU/g | Number of surviving microorganisms per g of contaminated sample, Lactic acid bacteria [10, 13]: 5.5 × 10^3 CFU/g | Number of surviving microorganisms per g of contaminated sample, Lactic acid bacteria [10, 14]: <100 CFU/g | Number of surviving microorganisms per g of contaminated sample, Lactic acid bacteria [10, 15]: <10 CFU/g | Number of surviving microorganisms per g of contaminated sample, Lactic acid bacteria [10, 16]: <10 CFU/g | Growth of Gram-negative bacteria ([11]; 1 g/l in apple juice pH 4.5): substantially inhibited | Number of surviving microorganisms per g of contaminated sample, Gram-negative bacteria [11, 13]: 9.0 × 10^3 CFU/g | Number of surviving microorganisms per g of contaminated sample, Gram-negative bacteria [11, 14]: 3.2 × 10^3 CFU/g | Number of surviving microorganisms per g of contaminated sample, Gram-negative bacteria [11, 15]: 1.5 × 10^3 CFU/g | Number of surviving microorganisms per g of contaminated sample, Gram-negative bacteria [11, 16]: 4.2 × 10^4 CFU/g | Number of surviving microorganisms per g of contaminated sample, Gram-positive bacteria ([12]; 1 day after inoculation (2.1 × 10^4)): 2.5 × 10^4 CFU/g | Number of surviving microorganisms per g of contaminated sample, Gram-positive bacteria ([12]; 3 days after inoculation (2.1 × 10^4)): 6.2 × 10^3 CFU/g | Number of surviving microorganisms per g of contaminated sample, Gram-positive bacteria ([12]; 7 days after inoculation (2.1 × 10^4)): 2.7 × 10^3 CFU/g | Number of surviving microorganisms per g of contaminated sample, Gram-positive bacteria ([12]; 14 days after inoculation (2.1 × 10^4)): <10 CFU/g
